# “And” between values parts separate entries of the source, which are not always exact repeats. Equal entries are not always repeated.
# System: HFF cells
# Test: XTT cytotoxicity assay
# Assay type: cell-based, human
# Conditions: not given
# Protocol: Cytotoxicity assays. HFF cells were seeded at 2×10^4, 4×10^3, or 10^3 cells per well into 96-well plates and, after a 3-hr incubation to allow cell attachment, were treated for 24, 72, or 120 hr, respectively, with various concentrations of each compound in duplicate. Cell viability was then determined with an XTT assay (Roche Molecular Biochemicals) according to the manufacturer's protocol by using a Victor plate reader (Wallac).
# The cytotoxicity of the compounds was measured in an XTT assay. XTT is a compound that is converted to a product that can be measured […], but only by viable cells. This assay is as follows. HFF (human foreskin fibroblasts) cells were seeded at different concentrations into 96-well plates and treated with various concentrations (from 0 to 200 μM) of each compound in duplicate for 24, 72 or 120 hr. Cell viability was then determined with an XTT assay (Roche Molecular Biochemicals) according to the manufacturer's protocol by using a Victor plate reader (Wallac).
Compound,cytotoxic concentration relative to antiviral concentration,cytotoxicity
Cn1c(=O)cc2c3c(c(N4CCCCC4)ccc31)C(=O)c1ccccc1-2 [AL5],7-500 fold,relatively high CC50's
COc1ccccc1C=C1N=C(c2ccc(OC)c(OC)c2)N(c2cccc(F)c2)C1=O [AL6],,significant cytotoxicity
CCN1C=CC(=CC=Cc2ccc3ccccc3[n+]2CC)c2ccccc21 [AL10],,significant cytotoxicity
CCn1c2ccccc2c2cc3cc4ccccc4cc3cc21 [AL11],,significant cytotoxicity
O=c1c2cccc3cccc(c32)c2nc3ccccc3n12 [AL12],7-500 fold,relatively high CC50's
CN(C)c1ccc2nc3c(=O)[nH]c(=O)[nH]c3nc2c1 [AL13],,significant cytotoxicity
CNC(=S)NN=Cc1cc(Br)ccc1O [AL14],,significant cytotoxicity
O=C1c2cccc3c([N+](=O)[O-])ccc(c23)C(=O)N1Cc1cccnc1 [AL19],,significant cytotoxicity

# Molecular target: T1, full-length UL54 / UL44 interaction (Human cytomegalovirus, UniProt P16790)
# T1 construct: made in house; host or cells: baculovirus expression; proteins provided by H. S. Marsden (Institute of Virology, Glasgow)
# Test: UL54-UL44 interaction ELISA
# Assay type: binding, HCMV
# Conditions: concentrations up to 200 μM
# Protocol: In this assay, binding between purified baculovirus-expressed UL54 and UL44, which was tagged with an EEF epitope, was detected using an antibody that recognizes the epitope tag (Loregian et al., 2003).
# UL54-UL44 interaction ELISA. This assay was conducted as described in (Loregian et al., 2003), testing various concentrations of each compound. After final washes, the chromogenic substrate 2,2′-azino-bis(3-ethylbenzothiazoline-6-sulphonic acid (ABTS, Pierce) in citrate phosphate buffer (pH 4.0) containing 0.01% hydrogen peroxide was added and absorbance was read at 405 nm on a Victor plate reader (Wallac).
# Another assay that was used to test the effect of the compounds on the interaction of UL44 and UL54 is an ELISA interaction assay, which measures the interaction of the two full length proteins with each other. This assay was conducted as described in Loregian et al., J. Virol. 2003, 77:8336-8344, testing different concentrations (0, 3.12, 6.25, 12.5, 25, 50, 100, 200 μM) of each compound.
# T1 sequence (P16790 whole entry): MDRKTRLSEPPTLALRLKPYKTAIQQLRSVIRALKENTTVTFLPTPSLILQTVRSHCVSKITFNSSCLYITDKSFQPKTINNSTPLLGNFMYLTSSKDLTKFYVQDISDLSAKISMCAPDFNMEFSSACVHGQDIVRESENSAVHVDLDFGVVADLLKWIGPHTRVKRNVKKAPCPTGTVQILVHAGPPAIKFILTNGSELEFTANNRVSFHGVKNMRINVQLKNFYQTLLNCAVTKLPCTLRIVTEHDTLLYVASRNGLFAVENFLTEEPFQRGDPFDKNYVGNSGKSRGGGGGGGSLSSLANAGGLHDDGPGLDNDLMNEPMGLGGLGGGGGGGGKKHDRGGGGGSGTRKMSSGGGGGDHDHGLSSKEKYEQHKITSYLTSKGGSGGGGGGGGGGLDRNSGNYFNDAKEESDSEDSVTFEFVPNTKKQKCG
row,Compound,inhibition of the UL54-UL44 physical interaction
1,CCOc1cc(C2C(C#N)=C(N)Oc3n[nH]c(-c4ccc(Cl)cc4)c32)cc([N+](=O)[O-])c1O (stereo not shown) [AL3],did not significantly inhibit
2,Cn1c(=O)cc2c3c(c(N4CCCCC4)ccc31)C(=O)c1ccccc1-2 [AL5],potent
3,O=c1c2cccc3cccc(c32)c2nc3ccccc3n12 [AL12],potent

# Molecular target: T2, UL54 plus GST-UL44ΔC290 (Human cytomegalovirus, UniProt P16790)
# T2 construct: GST-UL44ΔC290 fusion protein, which contains the N-terminal 290 residues of HCMV UL44; made in house; host or cells: UL54: in vitro transcription/translation; GST-UL44ΔC290: E. coli BL21 (DE3)pLysS
# Test: long-chain DNA synthesis by UL54 in the presence of UL44
# Assay type: biochemical, HCMV
# Conditions: 40 μM
# Protocol: To analyze the ability of the compounds to interfere with functional UL54-UL44 interactions, we tested their ability to inhibit long-chain DNA synthesis by UL54 in the presence of UL44 employing a poly(dA)-oligo(dT)12-18 template-primer.
# DNA polymerase assays. The effects of compounds were tested in an assay that measures long-chain DNA synthesis as described in Loregian et al. (Loregian et al., 2004a), with 5 μl of in vitro-transcribed and -translated UL54 plus 800 fmol of GST-UL44ΔC290 in the absence or in the presence of various amounts of each compound.
# The effect of the compounds was also tested in an assay that measures long chain (Lc) DNA synthesis as described in Loregian et al., J. Virol. […]
# T2 sequence (P16790 1-290, stated change not applied): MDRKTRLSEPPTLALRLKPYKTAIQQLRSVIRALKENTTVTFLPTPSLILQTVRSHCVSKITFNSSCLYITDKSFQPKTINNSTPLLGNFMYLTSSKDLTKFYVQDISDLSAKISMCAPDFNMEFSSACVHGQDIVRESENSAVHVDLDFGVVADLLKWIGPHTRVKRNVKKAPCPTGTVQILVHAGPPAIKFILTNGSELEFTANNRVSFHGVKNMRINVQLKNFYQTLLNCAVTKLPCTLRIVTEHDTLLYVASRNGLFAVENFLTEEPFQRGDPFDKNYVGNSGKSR
row,Compound,inhibition of long-chain DNA synthesis by UL54 and UL44 at one concentration
1,Cn1c(=O)cc2c3c(c(N4CCCCC4)ccc31)C(=O)c1ccccc1-2 [AL5],severely decreased formation of long DNA products
2,O=c1c2cccc3cccc(c32)c2nc3ccccc3n12 [AL12],severely decreased formation of long DNA products

# Same assay, conditions: dose-response
row,Compound,inhibition of long-chain DNA synthesis by UL54 and UL44
1,CCOc1cc(C2C(C#N)=C(N)Oc3n[nH]c(-c4ccccc4)c32)cc([N+](=O)[O-])c1O (stereo not shown) [AL1],little or no inhibition
2,CCOc1cc(C2C(C#N)=C(N)Oc3n[nH]c(-c4ccc(Cl)cc4)c32)cc([N+](=O)[O-])c1O (stereo not shown) [AL3],little or no inhibition
3,Cn1c(=O)cc2c3c(c(N4CCCCC4)ccc31)C(=O)c1ccccc1-2 [AL5],relatively low IC50s
4,Cc1ccc(-c2nc3nc(-c4ccc(Br)cc4)cn3nc2-c2ccc(C)cc2)cc1 [AL8],inactive
5,O=c1c2cccc3cccc(c32)c2nc3ccccc3n12 [AL12],relatively low IC50s

# System: HCMV AD169
# Test: virus yield reduction assay
# Assay type: cell-based, human cytomegalovirus
# Conditions: not given
# Protocol: Next, we tested the effects of selected compounds and of GCV as a control in viral yield assays, which measure the titer of virus progeny produced following infection at relatively high multiplicity. In these assays, the viral titer was measured at two different times points post-infection (p.i.): at 96 hrs, when the release of virus progeny is increasing, and at 120 hrs, when the titer of virus progeny after a single cycle of replication reaches peak levels (Stinski, 1983).
# (§1) For yield reduction assays, HFF cells were plated at 2×10^4 cells per well in 96-well cluster dishes, incubated overnight, and infected with HCMV AD169 at a multiplicity of infection (MOI) of 1. After virus adsorption for 2 hr at 37° C., cells were washed and incubated with 200 μl of fresh media containing test compounds at increasing drug concentration. Plates were incubated for 3 or 5 days at 37° C. and subjected to one cycle of freezing and thawing, and titers were determined by transferring 100-μl aliquots from each of the wells to a fresh 96-well monolayer culture of HFF cells followed by 1:5 serial dilution across the plate. Cultures were incubated for 7 days, cells were stained, and the numbers of plaques were determined as described above.
# as §1, with “The effect of the compounds was assessed in an assay of virus yield. In this assay, cells are infected at a relatively high multiplicity of infection (about one per cell) and then drug is added. The virus produced at the different times post infection is measured. 120 hrs. is about the peak titer. This assay was conducted as follows.” for “For yield reduction assays,”, “20,000” for “2×10^4”, “an MOI” for “a multiplicity of infection (MOI)”, “0.1, 0.3, 1, 3, 10, 30 μM” for “increasing”
row,Compound,effect on virus yield / HCMV replication
1,CCOc1cc(C2C(C#N)=C(N)Oc3n[nH]c(-c4ccccc4)c32)cc([N+](=O)[O-])c1O (stereo not shown) [AL1],little or no effect
2,CCOc1cc(C2C(C#N)=C(N)Oc3n[nH]c(-c4ccc(Cl)cc4)c32)cc([N+](=O)[O-])c1O (stereo not shown) [AL3],little or no effect
3,Cn1c(=O)cc2c3c(c(N4CCCCC4)ccc31)C(=O)c1ccccc1-2 [AL5],relatively low IC50s

# Same assay, conditions: HFF cells
row,Compound,effect on virus yield / HCMV replication
1,CCOc1cc(C2C(C#N)=C(N)Oc3n[nH]c(-c4cc(OC)c(OC)c(OC)c4)c32)cc([N+](=O)[O-])c1O (stereo not shown) [AL4],little or no effect
2,O=c1c2cccc3cccc(c32)c2nc3ccccc3n12 [AL12],relatively low IC50s

# System: HCMV strain AD169
# Test: plaque reduction assay
# Assay type: cell-based, human cytomegalovirus
# Conditions: HFF cells; 0-30 μM
# Protocol: Antiviral assays. Plaque reduction assays were performed essentially as follows: HFF (human foreskin fibroblast) cells were seeded at 2×10^5 cells per well in 24-well cluster dishes. The next day, cells were infected with HCMV (strain AD169) at 80 PFU per well in DMEM plus 5% fetal bovine serum (FBS) at 37° C. Two hours post-infection, the inocula were removed, cells were washed, and media containing various drug dilutions, 5% FBS, and 0.6% methylcellulose were added. All drug dilutions were tested at least in duplicate. After incubation at 37° C. for 10-11 days, cell monolayers were stained with crystal violet and plaques were counted under light microscopy.
# The effect of the compounds was assessed in a plaque reduction assay that measures the number of plaques formed in the presence of varying concentrations of a drug, as follows. HFF were seeded at 2×10^5 cells per well in 24-well cluster dishes. The next day, they were infected with HCMV AD169 at 80 PFU per well in DMEM plus 5% FBS at 37° C. Two hr post-infection, the inocula were then removed, cells were washed, and media containing selected drug dilutions (0, 0.1, 0.3, 1, 3, 10, 30 μM), and 5% FBS and 0.6% methylcellulose were added. All drug dilutions were tested at least in duplicate. After incubation at 37° C. for 10-11 days, cell monolayers were stained with crystal violet and plaques were enumerated under light microscopy.
row,Compound,IC50s in plaque reduction assay
1,Cn1c(=O)cc2c3c(c(N4CCCCC4)ccc31)C(=O)c1ccccc1-2 [AL5],relatively low IC50s
2,O=c1c2cccc3cccc(c32)c2nc3ccccc3n12 [AL12],relatively low IC50s

# Molecular target: T3, GST-UL44ΔC290 / UL54-derived peptide interaction (Human cytomegalovirus, UniProt P16790)
# T3 construct: GST-UL44ΔC290 fusion protein, which contains the N-terminal 290 residues of HCMV UL44; made in house; host or cells: E. coli BL21 (DE3)pLysS
# Test: biochemical
# Assay type: binding, HCMV
# Conditions: 2.5 μM GST-UL44ΔC290 and 3 nM labeled peptide; read-out: IC50 for inhibition of FP (UL44-UL54 peptide interaction)
# Source text: To identify small molecule inhibitors of the UL54-UL44 interaction, we developed an assay based on fluorescence polarization (FP) (Dandliker et al., 1981). In this assay, a peptide corresponding to the C-terminal 22 residues of UL54 (here named peptide 1, as in Loregian et al. (Loregian et al., 2003)), which was labeled with the fluorophore Oregon Green, is mixed with UL44ΔC290, a truncated protein which retains all known biochemical activities of full-length UL44 (Loregian et al., 2004b), fused to glutathione S-transferase (GST-UL44ΔC290).
# We next investigated whether this assay could detect a known inhibitor of the UL54-UL44 interaction. To this end, a binding reaction of 2.5 μM GST-UL44ΔC290 and 3 nM labeled peptide was titrated with increasing concentrations of unlabeled peptide 1 (FIG. 4B).
# FP assays. Unless otherwise indicated, […] of Oregon Green-labeled peptide 1 was added to 2.5 μM GST-UL44ΔC290 in 50 mM Tris-HCl (pH 7.5), 2 mM dithiothreitol, 0.5 mM EDTA, 150 mM NaCl, 4% glycerol and 100 μg/ml bovine serum albumin and kept on ice until the mix was distributed into black 384-well plates (Nunc) in a total volume of 40 μl per well. For high throughput screening, small molecules (5 mg/ml in DMSO) of the Maybridge, Bionet, Peakdale, ChemDiv, and Chembridge Microformat libraries were obtained from the ICCB, and 100 nl of each compound were transferred to individual wells using 384-pin arrays. All compounds were tested in duplicate. As controls, reaction mixtures containing either labeled peptide 1 only, or GST-UL44ΔC290 plus labeled peptide 1 (no compound), or GST-UL44ΔC290 plus labeled peptide 1 in the presence of 3 μM or 20 μM of unlabeled peptide 1, were included on each screening plate. After 15-min incubation at room temperature, FP values were determined by using an Analyst plate reader (LJL Biosystems) at the ICCB.
# A fluorescence polarization (FP) assay was used to identify compounds that inhibit HCMV polymerase subunit interactions. Compounds from the Harvard Institute of Chemistry and Cell Biology (ICCB, Harvard Medical School) were screened as follows. 3 nM of a synthetic peptide corresponding to the C-terminal 22 residues of HMCV UL54 (termed peptide 1 in Loregian et al., J. Virol. 2003, 77:8336-8344) and N-terminally labeled with Oregon Green was added to 2.5 μM GST-UL44ΔC290 in 50 mM Tris-HCl (pH 7.5), 2 mM DTT, 0.5 mM EDTA, 150 mM NaCl, 4% Glycerol and 100 μg/ml bovine serum albumin and kept on ice until the mix was distributed into black 384-well plates (Nunc) in a total volume of 40 μl per well. […] After 5-min incubation at room temperature, the FP values were determined by using an Analyst plate reader (LJL Biosystems) at the ICCB. […]
# T3 sequence (P16790 1-290, stated change not applied): as above
row,Compound,IC50 [µM]
1,CN(C)c1ccc2nc3c(=O)[nH]c(=O)[nH]c3nc2c1 [AL13],50
2,O=C1CC(=O)c2c1cccc2[N+](=O)[O-] [AL15],60

# Same assay, conditions: IC50 for inhibition of FP (UL44-UL54 peptide interaction), 2.5 μM GST-UL44ΔC290 and 3 nM labeled peptide
row,Compound,IC50
1,Cc1ccc(-c2nc3nc(-c4ccc(Br)cc4)cn3nc2-c2ccc(C)cc2)cc1 [AL8],< 50 µM and 5 to 30 µM
2,CCN1C=CC(=CC=Cc2ccc3ccccc3[n+]2CC)c2ccccc21 [AL10],< 50 µM and 5 to 30 µM

# Source: US7893108B2, “Antiviral methods and compositions” (priority 2004, dated 2011)
